The target in assay [1] is T1, full length (1-55) HIV-1 NCp7 (Human immunodeficiency virus type 1 group M subtype B, UniProt P12493).
T1 construct: recombinant full length (1-55) HIV-1 NCp7 proteins; made in house
Briefly: Electromobility Shift Assay (EMSA), competition for ssDNA binding. Conditions: NCp7 300 nM, M13mp18 ssDNA; positive = >25% inhibition at 100µM. The source says: The assay used a recombinant full length (1-55) HIV-1 NCp7 proteins based on the NL4-3 sequence (GenBank accession number AF324493). The protein was expressed and purified as described in [Carteau, S., Gorelick, R. J. & Bushman, F. D. Coupled integration of human immunodeficiency virus type 1 cDNA ends by purified integrase in vitro: stimulation by the viral nucleocapsid protein. Journal of virology 73, 6670-6679 (1999)].
Competition for single-stranded (ss) DNA binding was realized by mixing 1 µL of serial dilutions of NC inhibitors (diluted in DMSO) with 44 µL of NCp7 (300 nM) in a reaction buffer (20 mM Tris-HCl pH 7.4, 2 mM MgCl2, 100 mM NaCl, 1 mM DTT). 5 µL of a 10 ng/µL (4 nM) solution of M13mp18 ssDNA (BayouBiolabs) were then added and the tubes were incubated for 25 minutes at 37 °C. The reaction was terminated by chilling the tubes on ice followed by the addition of 5 µL of a loading buffer (30% glycerol, 0.01% xylene cyanol, 10 mM Tris-HCl pH 7.4). Samples were then resolved on 25 cm-long, 1% (w/v) agarose gels (SeaKem LE Agarose, Lonza) in 0.5x TBE. Gels were run in a Sub-Cell GT cuvette (BioRad) for 18 h at room temperature at 3 V/cm, stained with SybrGold (Molecular Probes) and scanned for fluorescence using a Typhoon 8600 (GE Healthcare). The experiments were performed in triplicate. Competition efficiency was realized by measuring the relative distance in pixels between the unbound ssDNA control, the NCp7-bound ssDNA control and the bound ssDNA for each points of the titration with the ImageQuant software. The IC50 was estimated as the NC inhibitors concentrations for which the bound ssDNA migrated at 50% of the distance separating the bound from the unbound ssDNA.

The target of assay [2] is NC(11-55) (Human immunodeficiency virus type 1, UniProt P12493). Briefly: NC inhibition assay (NC-induced cTAR DNA destabilization, fluorescence). The assay is classed as biochemical, HIV-1. Particulars: for IC50: cTAR DNA 0.1 µM, 1 µM NC(11-55), 20 °C, pH 7.5, read-out: NC inhibition IC50; for inhibition at 100 µM: single point screening, positive = >25% inhibition at 100µM. The text has this: The NC inhibition assay is based on the nucleic acid chaperone activity of the NC protein. NC destabilizes the secondary structure of cTAR DNA, the complementary sequence of the transactivation response element, which is involved in minus-strand DNA transfer during reverse transcription. In the assay, the cTAR sequence from the HIV-1 Mal strain (Bernacchi et al, J Mol Biol, 2002) is labeled with a dye (Alexa488 fluorophore) and a quencher 4-(4'-dimethylaminophenylazo)benzoic acid (Dabcyl) at its 5' and 3' ends, respectively. In the absence of destabilization, the close proximity of both cTAR ends results in a strong fluorescence quenching of the dye emission by the Dabcyl group. NC(11-55) added to cTAR at a ratio of 10 NC/cTAR melts the bottom of the cTAR stem, which increases the distance between the dye and the quencher and as a result increases the dye fluorescence signal [Shvadchak et al, (2009) Identification by high throughput screening of small compounds inhibiting the nucleic acid destabilization activity of the HIV-1 nucleocapsid protein. Biochimie, 916-923]. NCIs are expected to prevent the NC-induced destabilization of cTAR and thus reverse the NC-induced increase in the fluorescence of the labeled cTAR. The activity of the inhibitor is thus evaluated from the ratio of the fluorescence intensity observed in the presence of NC with the molecule to the one in the absence of the compound.
The doubly labelled cTAR DNA oligonucleotides (55nt) were synthesised and purified by IBA GmbH Nucleic Acids Product Supply (Göttingen, Germany). Extinction coefficient at 260 nm of 5.73 x 10^5 M^-1 cm^-1 was used to determine the concentration of cTAR.
The NC(11-55) peptide (Avilov et al, Antimicrob Agents Chemother, 2012) was synthesized by solid-phase peptide synthesis on a 433A synthesizer (ABI, Foster City, CA) as previously described [De Rocquigny H, (1991) First large scale chemical synthesis of the 72 amino acid HIV-1 nucleocapsid protein NCp7 in an active form. Biochem Biophys Res Commun., 1010-1018]. The peptide was stored lyophilized and was resuspended in water before use. The concentration of peptide was determined by using an extinction coefficient of 5.7 x 10^3 M^-1 cm^-1 at 280 nm. Next, 2.5 molar equivalents of ZnSO4 were added and pH was raised to its final value by adding buffer.
All experiments were performed at 20 °C in 25 mM Tris-HCl (pH 7.5), 30 mM NaCl, and 0.2 mM MgCl2. To evaluate the inhibition activity of compounds on NC-induced cTAR destabilization, cTAR DNA (0.1 µM) was preincubated with 1 µM NC(11-55) (molar ratio NC:cTAR = 10:1) for 15 min at room temperature before addition of compound. For single point screening, all compounds were tested at three final concentrations: 1 µM, 10 µM and 100 µM. For the IC50 determination, inhibition of NC-induced cTAR melting was monitored through addition of increasing concentrations of the selected molecules to the pre-formed NC(11-55)-cTAR complex. After the addition of compound, the mixture was incubated for 15 min at room temperature before the reading. The fluorescence signal was recorded with a plate reader Xenius (SAFAS Monaco) or Fluoromax 3 spectrofluorometer (Horiba Jobin-Yvon), and the excitation and emission wavelengths were 480 and 520 nm, respectively. The spectra were corrected for dilution, buffer fluorescence and screening effect (when it was required). In order to check the occurrence of aggregation, we performed additional reading of absorption with the plate reader Xenius (SAFAS Monaco) or Cary 4000 spectrophotometer (Agilent). […]

The test system of assay [3] is HIV-1 reference strain NL4-3. Briefly: BiCycle assay (MT-2 then TZM-bl cells). The assay is classed as cell-based. Conditions: Human immunodeficiency virus 1, NL43, TZM-bl, read-out: BiCycle IC50 nM. The procedure:
BiCycle Assay is cell based assay allowing the evaluation of the antiviral activity of HIV-1 inhibitors on the whole replication cycle of HIV-1. The assay consists in a first round of infection of the T-cell line MT-2 followed by infection of TZM-bl cells. MT-2 cells were seeded at a concentration of 50,000 cells/well in a 96-well plate and infected with the HIV-1 reference strain NL4-3 in presence of five-fold dilutions of the investigational compounds. After 72 hours, 50 µl of supernatant from each well, containing the virus produced in the first round of infection, were used to infect TZM-bl cells seeded in a 96-plate well at a concentration of 30,000 cells/well. Two days later, cells were lysed adding 40 µl of Glo Lysis Buffer (Promega) to each well for 5 minutes, then 40 µl of Brighy-Glo Luciferase Reagent (Promega) were added to each well for relative luminescence units (RLU) counting using Glo-Max Multi Detection System (Promega). RLU values from each well were elaborated using the GraphPad v5.0 software to calculate the IC50 of each compound.

On to `CCNCc1ccnc(-c2nc(O)c(O)c(C(=O)N[C@H](C)C3CCCCC3)n2)c1` [Compound 95, (R)-N-(1-cyclohexylethyl)-2-(4-((ethylamino)methyl)pyridin-2-yl)-5,6-dihydroxypyrimidine-4-carboxamide], for which, in assay [1], the EMSA screening results is on record as “Negative”. Further, in assay [2], the IC50 was 28 µM and the inhibition at 100 µM is over 25%.

For the molecule `O=C(NC1(C2CCCCC2)CC1)c1nc(-c2cc3ccccc3cn2)nc(O)c1O` [Compound 83, N-(1-cyclohexylcyclopropyl)-5,6-dihydroxy-2-(isoquinolin-3-yl)pyrimidine-4-carboxamide], the EMSA screening results in assay [1] was “Positive (A compound showing >25% inhibition when tested at 100µM concentration is considered as "positive")”. The molecule also had an inhibition at 100 µM in assay [2] of over 25%.

Turning to `C[C@@H](NC(=O)c1nc(-c2cc([N+](=O)[O-])ccn2)nc(O)c1O)C1CCCCC1` [Compound 40, (R)-N-(1-cyclohexylethyl)-5,6-dihydroxy-2-(4-nitropyridin-2-yl)pyrimidine-4-carboxamide], the EMSA screening results in assay [1] is on record as “Positive (A compound showing >25% inhibition when tested at 100µM concentration is considered as "positive")”. In assay [2], the half-inhibitory concentration (IC50) came out at 6.35 µM and the inhibition at 100 µM is over 25%.

Take `C[C@@H](NC(=O)c1nc(-c2cc(CNCc3ccccc3)ccn2)nc(O)c1O)C1CCCCC1` [Compound 96, (R)-2-(4-((benzylamino)methyl)pyridin-2-yl)-N (1-cyclohexylethyl)-5,6-dihydroxypyrimidine-4-carboxamide]: the EMSA screening results in assay [1] is “Negative”. The molecule also displayed an inhibition at 100 µM in assay [2] of over 25%.

Consider `C[C@@H](NC(=O)c1nc(-c2ncccc2NC(=O)OC(C)(C)C)nc(O)c1O)C1CCCCC1` [Compound 42, tert-butyl (R)-(2-(4-((1-cyclohexylethyl)carbamoyl)-5,6-dihydroxypyrimidin-2-yl)pyridin-3-yl)carbamate], for which the EMSA screening results in assay [1] was “Positive (A compound showing >25% inhibition when tested at 100µM concentration is considered as "positive")”. The IC50 in assay [3] amounted to 1600 nM. In assay [2], the IC50 was determined as 14.5 µM and the inhibition at 100 µM is over 25%.

As usually defined, the IC50 is the concentration that gives 50% inhibition. A word on the inhibition: it is the relative decrease from the control value, in per cent. A high value points to a strong effect.

The record behind these values is patent EP3290412A1, “HIV-1 NUCLEOCAPSID INHIBITORS” (Università degli Studi di Siena, priority 2016, dated 2018).
